Here are results for three compounds from ChEMBL document CHEMBL2062510, “Acylphloroglucinols from Elaphoglossum crassipes: antidepressant-like activity of crassipin A” (J Nat Prod, 2012).

The subject of series [1] is Mus musculus. The series can be described thus: Toxicity in CF1 mouse assessed as change in number of grooming at 15 mg/kg, po measured after 60 mins by open-field test. The format is organism-based. The arrangement: dose 15 mg/kg, route oral. Particulars: in vivo, 1 h.
The test system of series [2] is Mus musculus. Put plainly: Toxicity in CF1 mouse assessed as change in number of rearing at 15 mg/kg, po measured after 60 mins by open-field test. The class given is organism-based. The arrangement: dose 15 mg/kg, route oral. Conditions: in vivo, 1 h.
For series [3], the system named is Mus musculus. Put plainly: Toxicity in CF1 mouse assessed as change in number of crossing at 15 mg/kg, po measured after 60 mins by open-field test. Conditions: in vivo, 1 h. The arrangement: dose 15 mg/kg, route oral. The class given is organism-based.
In series [4] the test system is Mus musculus. Put plainly: Antidepressant activity in CF1 mouse assessed as reduction in immobility at 15 mg/kg, po measured after 60 mins by forced-swimming test. The class given is functional, organism-based. The arrangement: dose 15 mg/kg.
Series [5] concerns Mus musculus. The series can be described thus: Antidepressant activity in CF1 mouse assessed as reduction in immobility at 20 mg/kg, po measured after 60 mins by forced-swimming test. The class given is functional, organism-based. The arrangement: dose 20 mg/kg.

Active and inactive are the calls of the source. No cut-off for these calls is given here.

As for `CCCC(=O)C1=C(O)[C@](C)(C/C=C(\C)CCC=C(C)C)C(O)=C(Cc2c(O)c3c(c(C(=O)CCC)c2O)OC(C)(C)C=C3)C1=O` [CRASSIPIN A], the Activity result in the series on Mus musculus [1], with Mus musculus [2] and in the series with Mus musculus [3] was “Non-toxic” throughout. Further, the result in the series with Mus musculus [4] was Active.

Take `CN(C)CCCN1c2ccccc2CCc2ccccc21`: in the series with Mus musculus [5], the outcome was Active.

In the case of `CC/C=C(\OC(C)=O)C1=C(OC(C)=O)[C@](C)(C/C=C(\C)CCC=C(C)C)C(OC(C)=O)=C(Cc2c(OC(C)=O)c3c(c(C(=O)CCC)c2OC(C)=O)OC(C)(C)C=C3)C1=O`, the Activity result in the series with Mus musculus [1], with Mus musculus [2] and with Mus musculus [3] was “Non-toxic” each time. Further, the result with Mus musculus [4] was Active.
